The values that follow come from article PMC4222822, “Discovery and Characterization of a Potent and Selective Inhibitor of Aedes aegypti Inward Rectifier Potassium Channels” (PLoS ONE, 2014).

One experiment deals with AeKir2B (Aedes aegypti, UniProt L0EQ40). Nature of the experiment: Two-electrode electrophysiology of Xenopus oocytes expressing AeKir2B. It counts as cell-based. Conditions: inward current at −140 mV, 95% CI: 31.7–64.2 µM, n = 4–5 oocytes per concentration, read-out: IC50 of AeKir2B current inhibition. How it is done:
AeKir1 and AeKir2B channels were expressed heterologously in Xenopus laevis oocytes as described previously. In brief, defolliculated Xenopus oocytes (purchased from Ecocyte Bioscience, Austin, TX) were injected with 10 ng (0.35 ng/nL) of either AeKir1 or AeKir2B cRNA and cultured for 3–7 days in OR3 media at 18°C. Oocytes injected with 28 nl of nuclease-free H2O served as controls.
All electrophysiological experiments on Xenopus oocytes were performed at room temperature. When present, VU625 was dissolved in solution III or solution V to a final concentration of 0.1, 1, 5, 15, or 50 µM (0.05% DMSO). All solutions were delivered by gravity to a RC-3Z oocyte chamber (Warner Instruments, Hamden, CT) via polyethylene tubing at a flow rate of ∼2 ml/min. Solution changes were made with a Rheodyne Teflon 8-way Rotary valve (Model 5012, Rheodyne, Rohnert Park, CA).
Electrophysiological recordings from oocytes were conducted as described previously In brief, each oocyte was transferred to the holding chamber under superfusion with solution I and impaled with two conventional-glass microelectrodes backfilled with 3 M KCl (resistances of 0.5–1.5 MΩ) to measure membrane potential (Vm) and whole-cell membrane current (Im), respectively. […] All Vm and Im values were recorded by a Digidata 1440A Data Acquisition System (Molecular Devices) and the Clampex module of pCLAMP. […]

A further experiment addresses T1, Kir2.2 (Homo sapiens, UniProt Q14500).
T1 construct: expressed in transfected cells
T1 sequence (Q14500 1-433): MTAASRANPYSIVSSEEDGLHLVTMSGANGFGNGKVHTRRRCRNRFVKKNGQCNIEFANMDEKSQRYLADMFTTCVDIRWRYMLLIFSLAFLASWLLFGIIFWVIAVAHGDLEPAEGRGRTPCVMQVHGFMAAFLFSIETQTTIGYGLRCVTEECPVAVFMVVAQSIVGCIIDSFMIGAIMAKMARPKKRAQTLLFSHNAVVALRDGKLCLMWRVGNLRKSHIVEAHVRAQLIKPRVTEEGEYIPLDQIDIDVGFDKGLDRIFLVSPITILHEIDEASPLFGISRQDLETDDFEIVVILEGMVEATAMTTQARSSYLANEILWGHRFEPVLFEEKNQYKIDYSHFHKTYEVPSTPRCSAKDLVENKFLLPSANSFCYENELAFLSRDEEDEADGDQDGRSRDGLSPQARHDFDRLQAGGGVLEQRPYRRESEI
Nature of the experiment: Tl+ flux selectivity assay, Kir2.2. It counts as cell-based. As to conditions: n = 2 independent experiments in triplicate, read-out: Inhibition of Tl+ flux (IC50). How it is done:
[Worded in the source for another target; used here, by the source, with some conditions changed.] Tl^+ flux assays were performed essentially as described previously, [18], [19]. Briefly, stably transfected T-Rex-HEK-293 cells expressing AeKir1 channels were cultured overnight in 384-well plates (20,000 cells/20 µL/well black-walled, clear-bottomed BD PureCoat amine-coated plates (BD, Bedford, MA) with a plating media containing DMEM, 10% dialyzed FBS and 1 µg/mL tetracycline. The next day, the cell culture medium was replaced with a dye-loading solution containing assay buffer (Hanks Balanced Salt Solution with 20 mM HEPES, pH 7.3), 0.01% (w/v) Pluronic F-127 (Life Technologies, Carlsbad, CA), and 1.2 µM of the thallium-sensitive dye Thallos-AM (TEFlabs, Austin, TX). Following 1 hr incubation at room temperature, the dye-loading solution was washed from the plates and replaced with 20 µL/well of assay buffer. […] Tl^+ flux data were analyzed as previously described, [21], [22] using a combination of Excel (Microsoft Corp, Redmond, WA) with XLfit add-in (IDBS, Guildford, Surrey, UK) and OriginPro (OriginLab, Northampton, MA) software. […] The slope of the fluorescence increase beginning 5 s after Tl^+ addition and ending 15 s after Tl^+ addition was calculated.

For another experiment, the target named is melatonin MT1 receptor (Homo sapiens, UniProt P48039). Nature of the experiment: Radioligand displacement assay, melatonin MT1 receptor. Conditions: 10 µM VU625. It counts as binding, mammalian.

Structures are written as SMILES. pIC50: −log10 of the molar value. Where only a bound is given, the exact number is not on record here.

Sequence of melatonin MT1 receptor (P48039 whole entry): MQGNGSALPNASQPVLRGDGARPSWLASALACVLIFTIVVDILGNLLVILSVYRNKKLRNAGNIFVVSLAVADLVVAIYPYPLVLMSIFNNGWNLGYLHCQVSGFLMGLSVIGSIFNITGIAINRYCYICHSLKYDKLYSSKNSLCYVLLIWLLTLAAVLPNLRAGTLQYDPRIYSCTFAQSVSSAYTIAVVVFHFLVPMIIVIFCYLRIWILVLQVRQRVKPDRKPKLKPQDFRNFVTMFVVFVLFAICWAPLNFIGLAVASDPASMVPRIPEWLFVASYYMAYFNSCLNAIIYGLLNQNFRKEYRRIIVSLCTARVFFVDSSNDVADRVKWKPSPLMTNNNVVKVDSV
Sequence of AeKir2B (L0EQ40 entry or part of it): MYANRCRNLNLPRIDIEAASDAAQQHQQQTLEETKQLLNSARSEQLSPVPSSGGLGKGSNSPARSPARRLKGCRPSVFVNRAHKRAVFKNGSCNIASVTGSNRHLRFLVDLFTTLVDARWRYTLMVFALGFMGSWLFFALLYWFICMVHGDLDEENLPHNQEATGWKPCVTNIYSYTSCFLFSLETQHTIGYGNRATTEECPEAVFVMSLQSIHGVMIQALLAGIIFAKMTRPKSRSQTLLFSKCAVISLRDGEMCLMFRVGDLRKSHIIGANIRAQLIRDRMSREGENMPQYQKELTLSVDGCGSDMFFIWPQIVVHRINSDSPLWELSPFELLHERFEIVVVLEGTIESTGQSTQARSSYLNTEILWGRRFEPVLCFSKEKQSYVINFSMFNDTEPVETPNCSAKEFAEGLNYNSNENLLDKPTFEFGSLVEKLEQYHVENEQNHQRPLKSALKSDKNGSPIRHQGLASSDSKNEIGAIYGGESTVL

`CCC(=O)N1c2ccc(S(=O)(=O)Nc3cccc(OC)c3)cc2CC1C` (stereo not drawn) [VU625, N-(3-methoxyphenyl)-2-methyl-1-propionylindoline-5-sulfonamide]: the pIC50 at AeKir2B was 4.35; on Kir2.2, less than 4.52. The radioligand displacement on melatonin MT1 receptor came out at 56%.
